The values below come from ChEMBL document CHEMBL3507680, “University of Dundee, Gates Library screen for HepG2 cell viability”.

SMILES strings stand for the structures. Where “and” joins values, the source holds several entries; their conditions need not be identical. Identical values can stand only once. Where only a bound is given, the exact number is not on record here.

One data set is described as follows: Human HepG2 cell viability dose-response assay. Type of data set: toxicity, cell-based.
Conditions: not given
`Cc1cnc(CCN(C)C(=O)c2cccc(N(C)C)c2)s1` gave a BOTTOM of 0, an HILLSLOPE of 0, a TOP of 0 and a pXC50 of less than 4.53.

`CC(C)N1CCN(c2ccc3ccc(C(=O)NC4CCCC4)cn23)CC1.O=C(O)C(F)(F)F` yielded a BOTTOM of 0, an HILLSLOPE of 0, a TOP of 0 and a pXC50 of less than 4.53.

As for `CC(C)Nc1cc(-c2c[nH]nc2C2CCN(C(=O)C3CCC3)C2)ccn1` (stereo not given), the BOTTOM was 5.771 and 12.22; the HILLSLOPE was 3.68 and 3.705; the TOP is 97.15 and 97.9; the pXC50 is 6.593 and 6.589.

Another data set is described as follows: Human HepG2 cell viability assay in 384 well format. Type of data set: toxicity, cell-based. Set-up: dose 125 nL, time 70.5 hour; cytotoxicity at 70.5 h: concentration not given beside the values. To be noted: HepG2 cells, read-out: Inhibition.
As for `Cc1cnc(CCN(C)C(=O)c2cccc(N(C)C)c2)s1`, the cytotoxicity at 70.5 h was determined as 60.6%.

For the compound `CC(C)N1CCN(c2ccc3ccc(C(=O)NC4CCCC4)cn23)CC1.O=C(O)C(F)(F)F`, the cytotoxicity at 70.5 h was determined as 101%.

`CC(C)Nc1cc(-c2c[nH]nc2C2CCN(C(=O)C3CCC3)C2)ccn1` (stereo not given): the cytotoxicity at 70.5 h came to 95.8%.

Take `COc1ccccc1OC1(C(=O)O)CCN(c2nccnc2OC)CC1`: the cytotoxicity at 70.5 h was determined as 23.1%.

Turning to `Cn1ncc2c1C(COCC1CC1)CN(Cc1cccnc1)C2` (stereo not given), the cytotoxicity at 70.5 h is -4.66%.

Turning to `CC(C)N1CC(C(=O)N2CCC(Oc3ccccc3Cl)CC2)CC1=O` (stereo not given), the cytotoxicity at 70.5 h is -0.961%.

As for `Cn1nc(C(=O)N2CCSCC2)cc1NC(=O)c1ccco1`, the cytotoxicity at 70.5 h is -5.7%.

Take `CC(=O)N1CCC(c2noc(C3CCC(=O)N3)n2)CC1` (stereo not given): the cytotoxicity at 70.5 h came out at 16.7%.

Turning to `C=C(C)COc1ccccc1C(=O)NCCc1nncn1C`, the cytotoxicity at 70.5 h came to 25.1%.

For the compound `CN1CCN(C(=O)N2CCC3(CCCN(C4CCOCC4)C3=O)C2)CC1` (stereo not given), the cytotoxicity at 70.5 h is -0.535%.

For the compound `O=C(c1ccno1)N1CCO[C@@H]2CC(COCc3ccccn3)C[C@H]21` (stereo not given in full), the cytotoxicity at 70.5 h was -6.23%.

Consider `O=C(c1cccc(F)c1)N1CC[C@H]2[C@H]1CCN2CC1CCOCC1`, for which the cytotoxicity at 70.5 h was -6.77%.

As to `Cc1nnc(NCc2ccc(N3CCC(CO)CC3)cc2)c(C#N)c1C`, the cytotoxicity at 70.5 h is -1.7%.

For the compound `COc1ccccc1OCCNC(=O)N1CCC(n2cncn2)CC1`, the cytotoxicity at 70.5 h is -4.48%.

On to `CC(C)c1nccn1C1CCCN(C(=O)c2cnn(C)c2C2CC2)C1` (stereo not given), for which the cytotoxicity at 70.5 h is 5.54%.

As for `Cc1nc(-c2ccc(F)cc2)cc(C2CCNCC2)n1`, the cytotoxicity at 70.5 h was -10%.

As for `O=S(=O)(NCc1ccccc1)Nc1ccc(-n2cncn2)cc1`, the cytotoxicity at 70.5 h was -5.87%.

As for `CCS(=O)(=O)N1CCOC(CCCc2ccccc2)C1` (stereo not given), the cytotoxicity at 70.5 h was 5.87%.

As to `O=C(NCc1cccs1)[C@H]1CC[C@@H]2[C@@H](CCN2c2ncccn2)O1`, the cytotoxicity at 70.5 h is 2.87%.

With `CCn1ncc(-c2nc3c[nH]n(CC)c-3n2)c1C`, the cytotoxicity at 70.5 h turned out to be 0.803%.

For the compound `CCc1oc(C(=O)N[C@@H]2c3ccccc3C[C@@H]2O)cc1C`, the cytotoxicity at 70.5 h was -5.26%.

As to `Cc1ccc(C(=O)N(C)Cc2ccc3c(c2)OCO3)c(=O)[nH]1`, the cytotoxicity at 70.5 h is -4.29%.

In the case of `CCCc1nc(N[C@H]2COC[C@@H]2N2CCCCC2)c2cnn(C)c2n1`, the cytotoxicity at 70.5 h was -13.5%.

As for `CN1CCCC1CCNC(=O)c1ccccc1-n1cnc(CN)c1` (stereo not given), the cytotoxicity at 70.5 h amounted to 0.899%.

Turning to `COCCn1cc(C(=O)NCCS(N)(=O)=O)c2ccccc21`, the cytotoxicity at 70.5 h was -7.1%.

Consider `Cc1cc(C(=O)NCC2(N(C)C)CCCC2)c(C)n1-c1cccnc1`, for which the cytotoxicity at 70.5 h is -0.689%.

As for `Cc1cccc2nc(CN3CCCC3Cn3cncn3)cn12` (stereo not given), the cytotoxicity at 70.5 h was -17%.

Take `Cc1nc2c(c(NCc3ccccc3)n1)CCN(C(=O)NC(C)C)CC2`: the cytotoxicity at 70.5 h was 30.7%.

`COCCN(C)CC1CCCN1S(=O)(=O)Cc1ccccc1F` (stereo not given): the cytotoxicity at 70.5 h amounted to 13.2%.

As for `O=C(c1ccccn1)N1CCCC(c2ncncc2-c2ccncc2)C1` (stereo not given), the cytotoxicity at 70.5 h is -9.39%.

As for `CC(C)Cc1ncc2c(n1)CN(c1cc(N)nc(N)n1)C2`, the cytotoxicity at 70.5 h is -1.3%.

For the compound `CCN(CC)CC1CN(Cc2cccc(C#N)c2)Cc2nccn2C1` (stereo not given), the cytotoxicity at 70.5 h was found to be 5.06%.

As for `CC(C)(C)NC(=O)c1ccccc1NC(=O)c1ccncc1`, the cytotoxicity at 70.5 h is -5.9%.

`CC(C)CC(=O)N1CCCn2cnc(CNS(C)(=O)=O)c2C1`: the cytotoxicity at 70.5 h turned out to be 2.43%.

On to `CCCc1n[nH]c(C2CN(C(=O)c3cccc4[nH]ncc34)CCO2)n1` (stereo not given), for which the cytotoxicity at 70.5 h is -3.81%.

As to `CCC(=O)Nc1cccc(OCC(=O)N(C)Cc2nccn2CC)c1`, the cytotoxicity at 70.5 h was -2.37%.

Consider `COC(=O)c1sccc1S(=O)(=O)N1CCC(Oc2cnccn2)CC1`, for which the cytotoxicity at 70.5 h is -7.44%.

As to `COc1ccc(C)nc1NC(=O)Cc1c(C)nn(C)c1C`, the cytotoxicity at 70.5 h was -0.279%.

Regarding `CC(=O)Nc1nc(CN2CCOC(Cn3cc(C)cn3)C2)cs1` (stereo not given), the cytotoxicity at 70.5 h was -7.56%.

On to `Cc1cc(=O)[nH]c(NCCNC(=O)C(c2ccc(F)cc2)N(C)C)n1` (stereo not given), for which the cytotoxicity at 70.5 h amounted to 11.9%.

As to `CC(=O)N1CCN(c2ccccc2CNc2cncc(C)c2)CC1`, the cytotoxicity at 70.5 h worked out at 4.13%.

Turning to `Cc1noc(C)c1CC(=O)N1CCCN(C)c2ccc(Cl)cc21`, the cytotoxicity at 70.5 h is -11.4%.

Regarding `CCCn1nc2c(cc1=O)CN(CC1CCCCO1)CC2` (stereo not given), the cytotoxicity at 70.5 h is -1.08%.

Take `CCCn1nccc1C(=O)N1CCN(C(=O)C2CC2)[C@@H]2CS(=O)(=O)C[C@@H]21`: the cytotoxicity at 70.5 h was 11.1%.

For `CC(C)Cc1ncc2c(n1)CN(c1cc(NC3CC3)nc(N)n1)C2`, the cytotoxicity at 70.5 h amounted to 0.238%.

Regarding `N#Cc1cccc(N2CCC(CO)(CCc3ccccc3)CC2)n1`, the cytotoxicity at 70.5 h was -5.51%.

Turning to `CN1CC2(CCNCC2)COc2ccccc2S1(=O)=O`, the cytotoxicity at 70.5 h was -2.93%.

Regarding `O=C1CCC2(CCOC2)CN1Cc1nncn1CCc1ccccc1` (stereo not given), the cytotoxicity at 70.5 h came out at 4.96%.

For the compound `CCN(Cc1cnn(C)c1)C[C@H]1CC[C@@H](Cc2ccc(OC)nc2)O1`, the cytotoxicity at 70.5 h is -8.42%.

Regarding `CCOCCN1CCN(Cc2nnc(C3CC3)o2)CC1CC` (stereo not given), the cytotoxicity at 70.5 h is 13.5%.

Regarding `O=S(=O)(CCC1CCCO1)NCc1ncc(-c2ccccc2)o1` (stereo not given), the cytotoxicity at 70.5 h turned out to be 5%.

Regarding `Cc1cc(NC(=O)c2ccc(Br)cc2F)n(C)n1`, the cytotoxicity at 70.5 h came to 12.5%.

For `COCC1CCN(S(=O)(=O)NCC2COc3ccccc3C2)CC1` (stereo not given), the cytotoxicity at 70.5 h was 13.9%.

For the compound `Cc1cc(NCCc2nc(C)c[nH]2)nc(-c2ccccc2O)n1`, the cytotoxicity at 70.5 h is -1.72%.

As to `CCOC(=O)c1nc(CN2CCN(C(C)C(=O)NC3CC3)CC2)cs1` (stereo not given), the cytotoxicity at 70.5 h was -9.09%.

Turning to `Cn1c(CN2CCCC2c2noc(C3CC3)n2)cc(=O)n(C)c1=O` (stereo not given), the cytotoxicity at 70.5 h was -9.32%.

As to `Cc1nsc(N2CCN(CC(=O)NCc3cccnc3)CC2)n1`, the cytotoxicity at 70.5 h is -0.83%.

Consider `CC(C)(C)n1cc(CNC2CCN(C(=O)c3ccoc3)CC2)cn1`, for which the cytotoxicity at 70.5 h was -1.77%.

Regarding `O=C(NCCCOCC1CCCO1)c1cccnc1N1CCOCC1` (stereo not given), the cytotoxicity at 70.5 h is 36.7%.

On to `COC(=O)c1ccc(OC)c(OC23CCCN(CC2)C3)c1` (stereo not given), for which the cytotoxicity at 70.5 h is -8.44%.

For `COc1cc(C)nc(N2CCN(C(=O)c3ccoc3C)CC2)n1`, the cytotoxicity at 70.5 h is -6.48%.

As for `CN(C)c1ccc(CNC(=O)NCCc2cccs2)cn1`, the cytotoxicity at 70.5 h is -12.3%.

`CC1c2ncc(CNC(=O)C3CC3)n2CCN1Cc1ccsc1` (stereo not given): the cytotoxicity at 70.5 h is -1.59%.

`Cc1nc(C2CCN(C(C)C)CC2)sc1Br`: the cytotoxicity at 70.5 h was -2.12%.

As for `Cc1cccc(C(=O)Nc2cccc3c2CCCC3)n1`, the cytotoxicity at 70.5 h was -1.46%.

On to `CC(=O)c1cccc(C(=O)N2C[C@@H](CN3CCCCCC3)[C@@H](CO)C2)c1`, for which the cytotoxicity at 70.5 h is -5.31%.

As for `c1ccc(-n2cc(CN3CCCCC3Cn3cncn3)nn2)cc1` (stereo not given), the cytotoxicity at 70.5 h was -0.323%.

For `CNC(=O)CC1CCN(Cc2nc(-c3cccc(Cl)c3)oc2C)CC1`, the cytotoxicity at 70.5 h was -7.93%.

In the case of `CN(Cc1nncn1C)c1nccc(N2CCC(O)CC2)n1`, the cytotoxicity at 70.5 h is -4.03%.

For `O=C(Nc1ccccc1OCCc1ccccn1)N1CC[C@@H](O)C1`, the cytotoxicity at 70.5 h was -31%.

In the case of `Cc1cccc2nc(CN3CCCC(C)C3)cc(=O)n12` (stereo not given), the cytotoxicity at 70.5 h is 13.9%.

Take `Cc1c(I)cccc1C(=O)NCC1(CO)CC1`: the cytotoxicity at 70.5 h is -7.8%.

Regarding `CC(=O)N1CCO[C@H]2[C@H](OCCCn3cccn3)CC[C@@H]21`, the cytotoxicity at 70.5 h was -3.12%.

With `CNC(C)Cc1ccccc1Sc1ccc(O)cc1` (stereo not given), the cytotoxicity at 70.5 h is -8.32%.

In the case of `Cc1cccc(CN2CCC3(CCN(c4cccnc4)C3=O)C2)n1` (stereo not given), the cytotoxicity at 70.5 h was 2.95%.

As for `c1cnc(N2CCOC3(CCN(CC4CCOC4)CC3)C2)nc1` (stereo not given), the cytotoxicity at 70.5 h amounted to 2.18%.

For the compound `CS(=O)(=O)NCCNC(=O)Cc1ccc(Br)s1`, the cytotoxicity at 70.5 h was -3.17%.

In the case of `CCn1cnnc1CNC(=O)N(C)C(C)c1cccs1` (stereo not given), the cytotoxicity at 70.5 h was -0.961%.

Consider `COc1ncccc1CNC(=O)c1csc(Br)c1`, for which the cytotoxicity at 70.5 h was -8.18%.

In the case of `O=C(Cc1cccc(F)c1F)NC1COc2ccccc2C1=O` (stereo not given), the cytotoxicity at 70.5 h was -10.6%.

In the case of `COc1ccccc1C(C)NC(=O)NCCC(=O)NC1CCCCC1` (stereo not given), the cytotoxicity at 70.5 h was -16.1%.

As for `CCCSCC(=O)N1CCCC2(CCC(=O)N(CCc3c[nH]cn3)C2)C1` (stereo not given), the cytotoxicity at 70.5 h was -5.03%.

Regarding `COCC1CC2(CCN(c3cccc(C)n3)CC2)CN1c1ncccn1` (stereo not given), the cytotoxicity at 70.5 h is -10.3%.

On to `Cc1cc(C)n(CC2CCCCN2CC(=O)Nc2nnc(C)s2)n1` (stereo not given), for which the cytotoxicity at 70.5 h was -2.39%.

With `COCC1COCCC12CCN(C(=O)CC1Cc3ccccc3C1)CC2` (stereo not given), the cytotoxicity at 70.5 h was found to be 0.913%.

With `Cc1cccc(C(=O)N2CCN(c3ccc(-n4cccc4)nn3)CC2)c1`, the cytotoxicity at 70.5 h is -7.5%.

Turning to `Cn1nc2c(cc1=O)CN(c1ncnc3sccc13)CC2`, the cytotoxicity at 70.5 h stood at 5.63%.

Take `Cc1cc(C(F)(F)F)nn1CC(C)C(=O)Nc1cccnc1` (stereo not given): the cytotoxicity at 70.5 h was -3.81%.

In the case of `COc1cccc(OC)c1C(=O)N1CCN(c2ccccc2F)CC1`, the cytotoxicity at 70.5 h was found to be 39%.

As to `Cc1ccc(F)c(OC2CCCN(c3cnn(C)c3)C2=O)c1` (stereo not given), the cytotoxicity at 70.5 h was -3.77%.

With `Cc1noc(CN2CCN(CC(C)O)CC2)n1` (stereo not given), the cytotoxicity at 70.5 h worked out at 2.13%.

`CN(Cc1ccc(-n2cccn2)cc1)Cc1cnc(N(C)C)nc1`: the cytotoxicity at 70.5 h is -8.45%.

On to `CN(C)CC(=O)N1CCC2(CCc3ccc(-c4ccncc4)cc32)CC1`, for which the cytotoxicity at 70.5 h worked out at 3.66%.
